Measurements published in BigSolDB 2.1.

Structure (SMILES): CCOc1ccc(C2NC(=O)NC=C2C(=O)c2cc(OC)c(OC)c(OC)c2)cc1 (stereo not given)
- solubility (mole fraction) (in DMSO, 298.15 K): 0.00547
- solubility (mole fraction) (in DMSO, 303.15 K): 0.0065
- solubility (mole fraction) (in DMSO, 308.15 K): 0.00754
- solubility (mole fraction) (in DMSO, 313.15 K): 0.00879
- solubility (mole fraction) (in DMSO, 318.15 K): 0.00996
- solubility (mole fraction) (in PEG-400, 298.15 K): 0.00521
- solubility (mole fraction) (in PEG-400, 303.15 K): 0.00675
- solubility (mole fraction) (in PEG-400, 308.15 K): 0.00831
- solubility (mole fraction) (in PEG-400, 313.15 K): 0.0103
- solubility (mole fraction) (in PEG-400, 318.15 K): 0.0121
- solubility (mole fraction) (in ethanol, 298.15 K): 0.000294
- solubility (mole fraction) (in ethanol, 303.15 K): 0.000402
- solubility (mole fraction) (in ethanol, 308.15 K): 0.000516
- solubility (mole fraction) (in ethanol, 313.15 K): 0.000654
- solubility (mole fraction) (in ethanol, 318.15 K): 0.000802
- solubility (mole fraction) (in ethyl acetate, 298.15 K): 0.00143
- solubility (mole fraction) (in ethyl acetate, 303.15 K): 0.00174
- solubility (mole fraction) (in ethyl acetate, 308.15 K): 0.00222
- solubility (mole fraction) (in ethyl acetate, 313.15 K): 0.00286
- solubility (mole fraction) (in ethyl acetate, 318.15 K): 0.00345
- solubility (mole fraction) (in ethylene glycol, 298.15 K): 0.000397
- solubility (mole fraction) (in ethylene glycol, 303.15 K): 0.000543
- solubility (mole fraction) (in ethylene glycol, 308.15 K): 0.000697
- solubility (mole fraction) (in ethylene glycol, 313.15 K): 0.000866
- solubility (mole fraction) (in ethylene glycol, 318.15 K): 0.00107
- solubility (mole fraction) (in isopropanol, 298.15 K): 0.000469
- solubility (mole fraction) (in isopropanol, 303.15 K): 0.000619
- solubility (mole fraction) (in isopropanol, 308.15 K): 0.000772
- solubility (mole fraction) (in isopropanol, 313.15 K): 0.000958
- solubility (mole fraction) (in isopropanol, 318.15 K): 0.00113
- solubility (mole fraction) (in methanol, 298.15 K): 0.000252
- solubility (mole fraction) (in methanol, 303.15 K): 0.000328
- solubility (mole fraction) (in methanol, 308.15 K): 0.000407
- solubility (mole fraction) (in methanol, 313.15 K): 0.00049
- solubility (mole fraction) (in methanol, 318.15 K): 0.000577
- solubility (mole fraction) (in n-butanol, 298.15 K): 0.000672
- solubility (mole fraction) (in n-butanol, 303.15 K): 0.000859
- solubility (mole fraction) (in n-butanol, 308.15 K): 0.00105
- solubility (mole fraction) (in n-butanol, 313.15 K): 0.00125
- solubility (mole fraction) (in n-butanol, 318.15 K): 0.00146
- solubility (mole fraction) (in propylene glycol, 298.15 K): 0.000504
- solubility (mole fraction) (in propylene glycol, 303.15 K): 0.000682
- solubility (mole fraction) (in propylene glycol, 308.15 K): 0.00087
- solubility (mole fraction) (in propylene glycol, 313.15 K): 0.00107
- solubility (mole fraction) (in propylene glycol, 318.15 K): 0.00133
- solubility (mole fraction) (in sec-butanol, 298.15 K): 0.00067
- solubility (mole fraction) (in sec-butanol, 303.15 K): 0.000855
- solubility (mole fraction) (in sec-butanol, 308.15 K): 0.00104
- solubility (mole fraction) (in sec-butanol, 313.15 K): 0.00124
- solubility (mole fraction) (in sec-butanol, 318.15 K): 0.00145
- solubility (mole fraction) (in transcutol, 298.15 K): 0.00301
- solubility (mole fraction) (in transcutol, 303.15 K): 0.00367
- solubility (mole fraction) (in transcutol, 308.15 K): 0.00441
- solubility (mole fraction) (in transcutol, 313.15 K): 0.00519
- solubility (mole fraction) (in transcutol, 318.15 K): 0.00624
- solubility (mole fraction) (in water, 298.15 K): 7.87e-06
- solubility (mole fraction) (in water, 303.15 K): 1.09e-05
- solubility (mole fraction) (in water, 308.15 K): 1.51e-05
- solubility (mole fraction) (in water, 313.15 K): 2.02e-05
- solubility (mole fraction) (in water, 318.15 K): 2.54e-05
